# Measurements reported in patent publication US20210379153A1, “COMBINATION THERAPIES COMPRISING SIRP ALPHA-BASED CHIMERIC PROTEINS” (Shattuck Labs, Inc., priority 2018, published 2021).
# Legend:
# parental CHOK1 cells = experiment: Flow cytometry binding to parental CHOK1 cells
# Text: Scale is shown and yellow arrows correspond with each identified monomer. A schematic of the hexamer species is shown to the right, depicting dimerization of the Fc domain and trimerization of the CD40L domain. […] Recombinant hSIRPα-Fc, hCD40L-Fc, and hIgG1 were used as positive controls. […] In both panels, the CHOK1 Parental is on the left and the CHOK1/hCD47 is on the right. […] For both graphs, the CHOK1 Parental is on the bottom. […] In this figure, the control is the top curve, the SIRPα-Fc-CD40L is the middle curve, and the anti-CD47 is the bottom curve.
# The extracellular domain (ECD) of SIRPα and the ECD of CD40L were fused via an antibody Fc domain to generate SIRPαECD-Fc-CD40LECD chimeric proteins. When human proteins were used, the chimeric protein is referred to as hSIRPα-Fc-CD40L; when murine proteins were used, the chimeric protein is referred to as and mSIRPα-Fc-CD40L. […] The purified protein was then analyzed for the presence of each individual domain by Western blotting using anti-SIRPα, anti-Fc, and anti-CD40L antibodies (FIG. 3A, bottom). […] Next, binding affinities for SIRPα-Fc-CD40L to recombinant CD47, CD40, or Fc receptors were evaluated by surface plasmon resonance (SPR). […] A functional ELISA evaluated whether SIRPα-Fc-CD40L could outcompete a commercially available single-sided SIRPα-Fc control for binding to recombinant CD47 (FIG. 3H).
# [1] = tested on: IFNα1, IFNβ1, CD80 and CD86 expression in macrophages; experiment: qRT-PCR of macrophages sorted from macrophage:Toledo lymphoma co-cultures; format: cell-based, human; design: macrophage activation and type I interferon gene expression: dose or concentration left out as unconfirmed
# Description: FIG. 8D: Macrophage:Toledo lymphoma co-cultures were harvested 2 hours into phagocytosis assays in the presence of rituximab ([…]), SIRPα-Fc-CD40L ([…]), or the combination of both agents. Macrophages were isolated by CD11b+ FACS, RNA was prepared, cDNA synthesized, and gene expression (IFNa1, IFNb1, CD80, and CD86) assessed by qRT-PCR. Fold change was calculated using DDCT and values obtained from the housekeeping gene ACTB, and the corresponding values from untreated samples. […] After 2 hours, co-cultures were isolated from tissue culture vessels and were stained with a fluorescently conjugated CD11b antibody to discriminate macrophages. Cells were then assessed by flow cytometry for the co-localization of fluorescent signal from both cells types. Identical assays were set up where macrophages were pre-incubated for 1 hour with 20 μg/mL of a commercially available Fc block cocktail or with 20 μg/mL of a CD40 blocking antibody or with 5 μg/mL of a calreticulin blocking peptide. FIG. 8G: RAW 264.7-Lucia ISG cells were cultured with A20 lymphoma cells in the presence of […] of mSIRPα-Fc-CD40L, recombinant Fc-mCD40L, mSIRPα-Fc, or their combination, 1 mg/mL anti-mCD20, or the combination of mSIRPα-Fc-CD40L and anti-mCD20. After 24-hours type I interferon induced luminescence was assessed using a luminometer. The maximum luminescence (RLU) from each experiment was set to 1, and all other samples were normalized accordingly. Values from repeat experiments are shown.
# RNA was prepared from macrophages isolated using fluorescent activated cell sorting (FACS) from SIRPα-Fc-CD40L/Rituximab treated co-cultures macrophages and Toledo lymphoma cells. The RNA was assessed by qRT-PCR for expression of IFNα1 and IFNβ1, and the macrophage activation markers CD80 and CD86.
# [2] = tested on: HCC1954 (high Her2-expressing breast cancer cell line); experiment: Macrophage engulfment of HCC1954 cells; format: cell-based, human; settings: combination with anti-Her2 antibody (trastuzumab); vs low Her2-expressing tumor cells
# WEHI3 tumors = experiment: WEHI3 tumor model; format: in vivo, BALB/C mice
# Description: FIG. 20C: a similar CT26 experiment was initiated as described in FIG. 20A above, however mice were pre-treated on days −1, 1, and 10 with IP injections of 100 μg of either or both CD4/CD8 depleting antibodies. Mice were inoculated with CT26 tumors on day 0 and treated at a later starting date than FIG. 20A with mSIRPα-Fc-CD40L ARC on days 7, 9, and 11. […] In FIG. 20D and FIG. 20E, BALB/C mice were inoculated with WEHI3 tumors (FIG. 20D) or A20 tumors (FIG. 20E) subcutaneously on the rear flank, and then treated via IP injection with anti-CD20 or mSIRPα-Fc-CD40L on days 7, 9, and 11 (WEHI3) or days 10, 12, and 14 (A20); when tumors were established and reached approximately 57-60 mm^3. A cohort of mice were pre-treated with an interferon alpha receptor 1 (IFNAR1) blocking antibody ([…] by IP injection) on days −1, 1, and 10 (WEHI3) or on days −1, 1, and 13 (A20). FIG. 20F to FIG. 20H are graphs showing blockade of CD4, CD8, and IFNAR1. Peripheral blood analysis by flow cytometry of CD4 (FIG. 20F), CD8 (FIG. 20G), and IFNAR1 (FIG. 20H) depletion following depleting antibody treatment corresponding to FIG. 20C to FIG. 20E. Samples were normalized to untreated animals.
# In a second set of experiments, a combination of an anti-IFNAR-1 antibody and the anti-CD20 antibody, the SIRPα(CD172a)-Fc-CD40L chimeric protein in combination with the anti-IFNAR-1 antibody, and a triple combination of the SIRPα(CD172a)-Fc-CD40L chimeric protein, the anti-IFNAR-1 antibody, and the anti-CD20 antibody were tested. […] The depletion of IFNAR1+ cells was confirmed at multiple time points in the peripheral blood by flow cytometry (FIG. 20H).
# [3] = tested on: cynomolgus macaque erythrocytes; experiment: In vitro hemolysis, cynomolgus macaque erythrocytes; format: cell-based
# Text: However, the in vitro systems used to test this question have significant limitations, including a complete lack of macrophages in the test system.
substance,measurement,setting,value
SIRPα-Fc-CD40L: generic name of the SIRPαECD-Fc-CD40LECD chimeric protein; human or murine version according to the experiment,binding,parental CHOK1 cells,not to parental CHOK1 cells
same,induction of type I interferon genes,[1]; combination with rituximab,enhanced
same,macrophage activation and type I interferon gene expression,"[1]; monotherapy, 2 hours",induced macrophage activation and the expression of type I interferon genes
same,macrophage engulfment of tumor cells,[2],more effective
same,tumor size,WEHI3 tumors; combination with anti-CD20 antibody,reduced tumor size greater than either component alone
same,tumor reduction,WEHI3 tumors; combination with anti-IFNAR-1 antibody vs chimeric protein alone,less tumor reduction
same,tumor reduction,WEHI3 tumors; triple combination with anti-CD20 and anti-IFNAR-1 antibodies vs chimeric protein plus anti-CD20,less tumor reduction
same,hemolysis,[3],did not reveal evidence of hemolysis
